Laboratory results: patent publication US11834393B2, “Organic compounds having taste-modifying properties” (GIVAUDAN SA, priority 2013, dated 2023)

Tests used:
[1] = Beef bouillon, evaluation by a panel of experienced tasters; conditions: 1 ppm dosed to bouillon prepared from bouillon cubes
Method: A beef bouillon was prepared using bouillon cubes obtained from a local supermarket.

[2] = Mango flavoured beverage, evaluation by a panel of experienced tasters; conditions: 1 ppm dosed to mango drink (mango flavour 0.05% w/w, mango juice 0.18% w/w, sugar 8% w/w, citric acid 0.1% w/w)
Method: A mango-flavoured beverage was prepared using a standard mango flavour (0.05% w/w), mango juice (0.18% w/w), sugar (8% w/w) and citric acid (0.1% w/w).

Row | Structure (SMILES) | taste of the beef bouillon compared with the reference (panel) [1] | taste of the mango drink compared with the reference drink (panel) [2]
1 | CCCCCCCCCCCCCCCCNC(=O)CCCN [Ex 7, N-hexadecyl 4-aminobutyramide] | more salty and more umami and was more longlasting | 
2 | CCCCCCCCCCCCCCCCCCNC(=O)C1CCCN1 (stereo not shown) [Ex 3, N-octadecylpyrrolidine-2-carboxamide] |  | more over-ripe, more sweet, and more full and had an increased mouthfeel
3 | CCCCCCCCCCCCCCCCCCNC(=O)C(N)CCSC (stereo not shown) [Ex 1, 2-amino-4-(methylthio)-N-octadecylbutanamide] | more salty and more full | 
4 | CCCCCCCCCCCCCCCCCCNC(=O)C1(N)CC1 [Ex 5, 1-amino-N-octadecylcyclopropanecarboxamide] |  | more sweet, more ripe mango, more full and more long-lasting
